The assay deals with human CXCR3A (Homo sapiens (Human), UniProt P49682). Put plainly: FLIPR assay. The assay is classed as cell-based. The following applies: CHO-K1 cells expressing the human CXCR3A coupled to Galpha(16); CXCL10 agonist 20 nM; Fluo-4-AM fluorescence; mean values if determined several times. How it is done: The bioactivity of compounds is tested in a fluorometric imaging plate reader (FLIPR: Molecular Devices) using engineered CHO-K1 cells expressing the human CXCR3A coupled to a G protein (Galpha(16)). Cells are plated the day prior to bioassay in F12 medium supplemented with 10% FBS and G418 and hygromycin antibiotics to maintain recombinant selection. At the day of bioassay, cells are washed and dye loaded for one hour with Fluo-4-AM (Invitrogen) in Hanks Balanced Salt Solution (Invitrogen), buffered with 20 mM Hepes at pH 7.4 and sodium bicarbonate (0.015%), containing 5 mM probenecid. […] Cells are washed free of excess dye and 60 microliter of wash buffer is added. Stock solutions of test compounds are made up at a concentration of 10 mM in DMSO, and serially diluted in dilution buffer to concentrations required for inhibition dose response curves. After a 10 minute incubation period at 37° C., 10 microliters of each compound dilution are transferred from a compound plate to the plate containing the recombinant cells in the FLIPR instrument according to the manufacturer's instructions. Following basal readings, 10 microliter CXCL10 agonist at a concentration of 20 nM (from Peprotech) is added, again using the FLIPR instrument. Changes in fluorescence are monitored before and after addition of the test compounds. Emission peak values above base level after CXCL10 addition are exported after base line subtraction. The program XLfit is used to fit the data to a single site dose response curve and to calculate IC50 values.
Chain of human CXCR3A (P49682 whole entry): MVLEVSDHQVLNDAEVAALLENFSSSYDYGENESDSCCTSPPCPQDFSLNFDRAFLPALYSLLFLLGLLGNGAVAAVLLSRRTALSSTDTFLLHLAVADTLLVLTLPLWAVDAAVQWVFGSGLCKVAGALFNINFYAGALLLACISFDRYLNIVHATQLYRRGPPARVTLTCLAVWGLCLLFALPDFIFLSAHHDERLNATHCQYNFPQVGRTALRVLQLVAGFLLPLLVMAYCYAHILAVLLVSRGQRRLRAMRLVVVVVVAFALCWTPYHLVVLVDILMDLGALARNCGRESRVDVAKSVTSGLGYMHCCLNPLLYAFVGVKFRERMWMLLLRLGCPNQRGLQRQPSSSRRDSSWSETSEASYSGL
Compound `COc1ccc(CC(=O)N2CCN(c3scnc3-c3nc4ccccc4[nH]3)CC2)c(F)c1` [Example 111, 1-{4-[4-(1H-Benzoimidazol-2-yl)-thiazol-5-yl]-piperazin-1-yl}-2-(2-fluoro-4-methoxy-phenyl)-ethanone] showed an IC50 of 280 nM. Compound `Cn1c(=O)n(CC(=O)N2CCN(c3scnc3-c3nc4ccc(F)cc4[nH]3)CC2)c2ccccc21` [Example 34, 1-(2-{4-[4-(6-Fluoro-1H-benzoimidazol-2-yl)-thiazol-5-yl]-piperazin-1-yl}-2-oxo-ethyl)-3-methyl-1,3-dihydro-benzoimidazol-2-one] registered an IC50 of 10 nM. Take `O=C(Cn1ccc2cccnc21)N1CCN(c2sc(-c3ccccc3)nc2-c2nc3ccccc3[nH]2)CC1` [Example 41, 1-{4-[4-(1H-Benzoimidazol-2-yl)-2-phenyl-thiazol-5-yl]-piperazin-1-yl}-2-pyrrolo[2,3-b]pyridin-1-yl-ethanone]: the IC50 is 77 nM.

`O=C(Cn1ccc2cccc(F)c21)N1CCN(c2scnc2-c2nc3ccccc3[nH]2)CC1` [Example 108, 1-{4-[4-(1H-Benzoimidazol-2-yl)-thiazol-5-yl]-piperazin-1-yl}-2-(7-fluoro-indol-1-yl)-ethanone] registered an IC50 of 4 nM. As to `O=C(Cc1cccnc1)N1CCN(c2scnc2-c2nc3ccccc3[nH]2)CC1` [Example 110, 1-{4-[4-(1H-Benzoimidazol-2-yl)-thiazol-5-yl]-piperazin-1-yl}-2-pyridin-3-yl-ethanone], the IC50 worked out at 487 nM. To `Cc1nc(C)c(CC(=O)N2CCN(c3scnc3-c3nc4ccccc4[nH]3)CC2)s1` [Example 11, 1-{4-[4-(1H-Benzoimidazol-2-yl)-thiazol-5-yl]-piperazin-1-yl}-2-(2,4-dimethyl-thiazol-5-yl)-ethanone] belongs 311 nM; to `C[C@@H]1CN(c2scnc2-c2nc3ccccc3[nH]2)CCN1C(=O)Cc1c[nH]c2ccc(Cl)cc12` [Example 127, 1-{(R)-4-[4-(1H-Benzoimidazol-2-yl)-thiazol-5-yl]-2-methyl-piperazin-1-yl}-2-(5-chloro-1H-indol-3-yl)-ethanone], 490 nM. In the case of `C[C@@H]1CN(c2scnc2-c2nc3ccccc3[nH]2)CCN1C(=O)Cc1nc2cc(Cl)ccc2[nH]1` [Example 129, 1-{(R)-4-[4-(1H-Benzoimidazol-2-yl)-thiazol-5-yl]-2-methyl-piperazin-1-yl}-2-(5-chloro-1H-benzoimidazol-2-yl)-ethanone], the half-inhibitory concentration (IC50) was 109 nM. To `C[C@@H]1CN(c2scnc2-c2nc3ccccc3[nH]2)CCN1C(=O)Cc1c[nH]c2ccc(F)cc12` [Example 128, 1-{(R)-4-[4-(1H-Benzoimidazol-2-yl)-thiazol-5-yl]-2-methyl-piperazin-1-yl}-2-(5-fluoro-1H-indol-3-yl)-ethanone] belongs 47 nM; to `COCCOc1ccc2[nH]c(-c3ncsc3N3CCN(C(=O)Cn4c(=O)n(C)c5ccccc54)CC3)nc2c1` [Example 102, 1-[2-(4-{4-[5-(2-Methoxy-ethoxy)-1H-benzoimidazol-2-yl]-thiazol-5-yl}-piperazin-1-yl)-2-oxo-ethyl]-3-methyl-1,3-dihydro-benzoimidazol-2-one], 14 nM; to “1-{(R)-4-[4-(1H-Benzoimidazol-2-yl)-thiazol-5-yl]-2-methoxymethyl-piperazin-1-yl}-2-pyrrolo[2,3-b]pyridin-1-yl-ethanone [Example 20]”, 69 nM. `O=C(Cn1cnc2cccnc21)N1CCC(c2scnc2-c2nc3ccccc3[nH]2)CC1` [Example 48, 1-{4-[4-(1H-Benzoimidazol-2-yl)-thiazol-5-yl]-piperidin-1-yl}-2-imidazo[4,5-b]pyridin-3-yl-ethanone] registered an IC50 of 448 nM. To `Cn1c(=O)n(CC(=O)N2CCN(c3scnc3-c3nc4c(Cl)cccc4[nH]3)CC2)c2ccccc21` [Example 29, 1-(2-{4-[4-(4-Chloro-1H-benzoimidazol-2-yl)-thiazol-5-yl]-piperazin-1-yl}-2-oxo-ethyl)-3-methyl-1,3-dihydro-benzoimidazol-2-one] belongs 4 nM. To `Cc1ccn(CC(=O)N2CCN(c3scnc3-c3nc4ccccc4[nH]3)CC2)n1` [Example 6, 1-{4-[4-(1H-Benzoimidazol-2-yl)-thiazol-5-yl]-piperazin-1-yl}-2-(3-methyl-pyrazol-1-yl)-ethanone] belongs 130 nM; to `C[C@@H]1CN(c2scnc2-c2nc3ccccc3[nH]2)CCN1C(=O)Cn1cccc2oc(=O)nc1-2` [Example 156, 4-(2-{(R)-4-[4-(1H-Benzoimidazol-2-yl)-thiazol-5-yl]-2-methyl-piperazin-1-yl}-2-oxo-ethyl)-4H-oxazolo[4,5-b]pyridin-2-one], 64 nM.

Regarding `Cc1cn(CC(=O)N2CCN(c3scnc3-c3nc4ccccc4[nH]3)CC2)c2ccc(F)cc12` [Example 63, 1-{4-[4-(1H-Benzoimidazol-2-yl)-thiazol-5-yl]-piperazin-1-yl}-2-(5-fluoro-3-methyl-indol-1-yl)-ethanone], the IC50 turned out to be 13 nM. To `C[C@@H]1CN(c2sc(CCC(=O)O)nc2-c2nc3ccccc3[nH]2)CCN1C(=O)Cn1ccc2cccnc21` [Example 224, 3-{4-(1H-Benzoimidazol-2-yl)-5-[(R)-3-methyl-4-(2-pyrrolo[2,3-b]pyridin-1-yl-acetyl)-piperazin-1-yl]-thiazol-2-yl}-propionic acid] belongs 100 nM; to `Cc1cc2cccnc2n1CC(=O)N1CCN(c2scnc2-c2nc3ccccc3[nH]2)CC1` [Example 66, 1-{4-[4-(1H-Benzoimidazol-2-yl)-thiazol-5-yl]-piperazin-1-yl}-2-(2-methyl-pyrrolo[2,3-b]pyridin-1-yl)-ethanone], 31 nM. Compound `C[C@@H]1CN(c2scnc2-c2nc3ccccc3n2C)CCN1C(=O)Cn1cnc2cccnc21` [Example 98, 2-Imidazo[4,5-b]pyridin-3-yl-1-{(R)-2-methyl-4-[4-(1-methyl-1H-benzoimidazol-2-yl)-thiazol-5-yl]-piperazin-1-yl}-ethanone] showed an IC50 of 9 nM. In turn, `C[C@@H]1CN(c2scnc2-c2nc3ccccc3[nH]2)CCN1C(=O)Cc1c[nH]c2ccccc12` [Example 124, 1-{(R)-4-[4-(1H-Benzoimidazol-2-yl)-thiazol-5-yl]-2-methyl-piperazin-1-yl}-2-(1H-indol-3-yl)-ethanone] came in with an IC50 of 10 nM. Consider `C[C@@H]1CN(c2scnc2-c2nc3ccccc3[nH]2)CCN1C(=O)Cc1cccc2[nH]ccc12` [Example 123, 1-{(R)-4-[4-(1H-Benzoimidazol-2-yl)-thiazol-5-yl]-2-methyl-piperazin-1-yl}-2-(1H-indol-4-yl)-ethanone], for which the IC50 came out at 69 nM. In turn, `O=C(CN1CCOc2ccccc21)N1CCN(c2scnc2-c2nc3ccccc3[nH]2)CC1` [Example 106, 1-{4-[4-(1H-Benzoimidazol-2-yl)-thiazol-5-yl]-piperazin-1-yl}-2-(2,3-dihydro-benzo[1,4]oxazin-4-yl)-ethanone] showed an IC50 of 99 nM. To `Cc1cc2ccccc2n1CC(=O)N1CCN(c2scnc2-c2nc3ccccc3[nH]2)CC1` [Example 58, 1-{4-[4-(1H-Benzoimidazol-2-yl)-thiazol-5-yl]-piperazin-1-yl}-2-(2-methyl-indol-1-yl)-ethanone] belongs 34 nM. `C[C@@H]1CN(c2scnc2-c2nc3ccccc3[nH]2)CCN1C(=O)Cc1ccc2ccccc2c1` [Example 117, 1-{(R)-4-[4-(1H-Benzoimidazol-2-yl)-thiazol-5-yl]-2-methyl-piperazin-1-yl}-2-naphthalen-2-yl-ethanone] returned an IC50 of 75 nM.

`O=C(Cn1c(C(F)(F)F)nc2ccccc21)N1CCN(c2scnc2-c2nc3ccccc3[nH]2)CC1` [Example 64, 1-{4-[4-(1H-Benzoimidazol-2-yl)-thiazol-5-yl]-piperazin-1-yl}-2-(2-trifluoromethyl-benzoimidazol-1-yl)-ethanone] yielded an IC50 of 111 nM.

For `C[C@@H]1CN(c2scnc2-c2nc3ccccc3[nH]2)CCN1C(=O)Cc1csc2ccccc12` [Example 133, 2-Benzo[b]thiophen-3-yl-1-{(R)-4-[4-(1H-benzoimidazol-2-yl)-thiazol-5-yl]-2-methyl-piperazin-1-yl}-ethanone], the IC50 was determined as 6 nM. To `Cc1nc2ccccn2c1CC(=O)N1CCN(c2scnc2-c2nc3ccccc3[nH]2)CC1` [Example 9, 1-{4-[4-(1H-Benzoimidazol-2-yl)-thiazol-5-yl]-piperazin-1-yl}-2-(2-methyl-imidazo[1,2-a]pyridin-3-yl)-ethanone] belongs 90 nM; to `C[C@@H]1CN(c2scnc2-c2nc3ccccc3[nH]2)CCN1C(=O)Cn1ccc2ncc(Cl)nc21` [Example 140, 1-{(R)-4-[4-(1H-Benzoimidazol-2-yl)-thiazol-5-yl]-2-methyl-piperazin-1-yl}-2-(3-chloro-pyrrolo[2,3-b]pyrazin-5-yl)-ethanone], 6 nM. To `Cc1cn(CC(=O)N2CCN(c3scnc3-c3nc4ccccc4[nH]3)CC2)c2ncccc12` [Example 67, 1-{4-[4-(1H-Benzoimidazol-2-yl)-thiazol-5-yl]-piperazin-1-yl}-2-(3-methyl-pyrrolo[2,3-b]pyridin-1-yl)-ethanone] belongs 9 nM.
